Source: US8124389B2, “Crystal structure of aldehyde dehydrogenase and methods of use thereof” (The Board of Trustees of the Leland Stanford Junior …, priority 2008, dated 2012)
Numbering of substitutions follows the chain as printed.

Tests used:
Assay type in all cases: biochemical
[1] = target: T1, wild-type ALDH2 (Homo sapiens, UniProt P05091); test: Dehydrogenase activity kinetic assay (25 mM BES, pH 7.5); conditions: for Vm/Vo / Vmax^(app) / EC50: 25 mM BES, pH 7.5, 0.5 mM NAD+; for EC50: read-out: KAct^(app); for Hill Slope / Vmax^(app) of daidzin inhibition curve / Vmin^(app) of daidzin inhibition curve: 100 μM propionaldehyde, 0.5 mM NAD+
T1 construct: made in house; host or cells: E. coli
T1 sequence (P05091 18-517): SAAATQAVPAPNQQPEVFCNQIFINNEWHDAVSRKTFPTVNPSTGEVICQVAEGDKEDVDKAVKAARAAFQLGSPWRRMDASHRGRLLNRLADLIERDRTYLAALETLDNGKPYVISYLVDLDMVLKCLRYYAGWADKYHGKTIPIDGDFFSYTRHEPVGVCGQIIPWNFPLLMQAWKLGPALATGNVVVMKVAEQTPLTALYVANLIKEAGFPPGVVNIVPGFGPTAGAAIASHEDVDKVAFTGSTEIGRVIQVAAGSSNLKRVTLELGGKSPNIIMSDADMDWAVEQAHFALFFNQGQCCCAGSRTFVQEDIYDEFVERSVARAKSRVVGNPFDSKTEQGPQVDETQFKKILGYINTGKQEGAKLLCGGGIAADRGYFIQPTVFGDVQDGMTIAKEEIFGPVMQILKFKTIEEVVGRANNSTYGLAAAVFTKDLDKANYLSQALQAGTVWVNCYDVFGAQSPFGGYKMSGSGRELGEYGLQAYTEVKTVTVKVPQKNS
Description: (§1) (A) Wild-type ALDH2 at 0 μM or 10 μM Alda-1 and (B) ALDH2*2 at 0 μM or 50 μM Alda-1. NAD^+concentrations were 0.5 mM for wild-type ALDH2 and 10 mM for ALDH2*2. Lines show fits to 4-parameter logistic curve.
(§2) ALDH2 and ALDH2*2 were produced and purified using an E. coli expression system as previously described (Larson et al., 2005, J. Biol. Chem. 280, 30550-30556 and Larson et al., 2007, J. Biol. Chem., 282, 12940-12950). All enzyme assays were performed in 25 mM BES, pH 7.5 and included a final concentration of 2% (v/v) DMSO as a cosolvent in all cases whether or not Alda-1 was present. Enzyme concentrations in the dehydrogenase assays were between 0.03 and 0.06 μM for ALDH2 and between 0.3 and 0.5 μM for ALDH2*2. Esterase assays utilized 0.97 mM para-nitrophenylacetate (pNPA) as a standard substrate concentration and enzyme concentrations for 0.06 μM for ALDH2 and 0.7 μM for ALDH2*2. All kinetic data were analyzed with SigmaPlot (v10.0, StatSys). All activation data for the dehydrogenase and esterase reactions were fit to the expression v=Vo+{(Vmax[S])/(KAct+[S])}, where Vo is the initial velocity for the reaction in the absence of activator and KAct is the concentration of activator required for half-maximal activation. All single-vary experiments for Alda-1 activation utilized a minimum of 10 different concentrations across a range from 0-200 μM. […] All data represent the average of a minimum of three independent experiments with at least two different enzyme preparations.

[2] = target: T2, ALDH2*2 (Homo sapiens, UniProt P05091, E504K); test: as above; conditions: for Hill Slope / Vmax^(app) of daidzin inhibition curve / Vmin^(app) of daidzin inhibition curve: 100 μM propionaldehyde, 10 mM NAD+
T2 construct: made in house; host or cells: E. coli
T2 sequence (P05091 18-517 E504K): T1 sequence (P05091 18-517) with E487K
Description: as §1, §2

[3] = target: T1, wild-type ALDH2; test: Esterase activity assay (p-nitrophenylacetate hydrolysis); conditions: for Vmax / EC50 / Vo: 0.97 mM p-Nitrophenylacetate; for EC50: read-out: KAct^(app); for Vo: velocity in absence of activator
Description: as §2
(§3) The ability of Alda-1 to stimulate the hydrolysis of p-nitrophenylacetate both in the presence and absence of coenzyme was examined.

[4] = target: T2, ALDH2*2; test: as above
Description: as §2, §3

[5] = target: T2, ALDH2*2; test: Dehydrogenase activity kinetic assay (25 mM BES, pH 7.5)
[6] = target: T3, heterotetrameric ALDH2 (wild type/mutant) (Homo sapiens, UniProt P05091, E504K); test: Enzyme activation of recombinant ALDH2 proteins by Alda-1 (FIG. 2); conditions: Alda-1 at 100 μM; 20 μg recombinant protein
T3 construct: made in house
T3 sequence (P05091 18-517): T1 sequence (P05091 18-517)
T3 sequence (P05091 18-517 E504K): T1 sequence (P05091 18-517) with E487K
Description: (§4) FIG. 2 depicts enzyme activation of homotetrameric wild type ALDH2 (homo wild type), heterotetrameric ALDH2 (hetero wild type/mutant; comprising a mixture of wild-type and mutant monomers), and homotetrameric mutant ALDH2 by Alda-1(100 μM). Enzymatic activity of recombinant ALDH2 proteins (20 μg each) is presented in percentage using homotetrameric wild type enzyme as a 100% control (n=3, **p<0.01 vs. control).
(§5) Alda-1 is an ALDH2 agonist. […] Chen et al. (2008) Science 321:1493-1495; PMID: 18787169.

[7] = target: T4, homotetrameric mutant ALDH2*2 (Homo sapiens, UniProt P05091, E504K); test: as above; conditions: Alda-1 at 100 μM; 20 μg recombinant protein
T4 construct: made in house
T4 sequence (P05091 18-517 E504K): T1 sequence (P05091 18-517) with E487K
Description: as §4, §5

[8] = target: T5, homotetrameric wild type ALDH2*1/*1 (Homo sapiens, UniProt P05091); test: as above; conditions: Alda-1 at 100 μM; 20 μg recombinant protein
T5 construct: made in house
T5 sequence (P05091 18-517): T1 sequence (P05091 18-517)
Description: as §4, §5

[9] = fixed 50 μM Alda-1, NAD+ as varied activator, 0.97 mM p-Nitrophenylacetate

## O=C(NCc1ccc2c(c1)OCO2)c1c(Cl)cccc1Cl [Alda-1, N-(1,3-benzodioxol-5-ylmethyl)-2,6-dichlorobenzamide]
[1]
  effect on ALDH2 activity with phenylacetaldehyde or DACA: little effect
[1]; 10 μM Alda-1
  effect on daidzin inhibition: antagonized daidzin inhibition
[1]; 20 μM Alda-1, saturating concentrations of substrate, pH 7.5
  effect on dehydrogenase activity with aromatic aldehydes (benzaldehyde, phenylacetaldehyde, DACA): minimal effects
[1]; 100 μM Acetaldehyde
  Vm/Vo: 1.8 +/− 0.1
  Vmax^(app): 107 ± 12 min⁻¹
  EC50: 0.98 µM
[1]; 100 μM Butyraldehyde
  Vm/Vo: 1.3 +/− 0.1
  Vmax^(app): 86.6 ± 3.1 min⁻¹
  EC50: 1.8 µM
[1]; 100 μM Propionaldehyde
  Vm/Vo: 1.7 +/− 0.1
  Vmax^(app): 78.5 ± 9.6 min⁻¹
  EC50: 5.1 µM
[1]; Alda-1 >100 μM
  effect on ALDH2 activity with phenylacetaldehyde or DACA at high concentrations: weakly inhibitory
[1]; up to maximum concentration used, 200 μM Alda-1
  effect on activity with benzaldehyde: little effect
[2]; 50 μM Alda-1
  effect on daidzin inhibition: antagonized daidzin inhibition
[3]; 0.5 mM NAD+
  Vmax: 248 ± 22 min⁻¹
  EC50: 2.6 µM
  Vo: 96.3 ± 2.2 min⁻¹
[3]; 0.5 mM NAD+, higher Alda-1 concentrations, antagonism with NAD+
  Vmax (second line, paired with Ki^(app)): 242 ± 14 min⁻¹
[3]; 0.5 mM NAD+, higher Alda-1 concentrations, antagonism with NAD+, read-out: Ki^(app)
  Ki: 328 µM
[3]; combined Alda-1 and NAD+
  increase of ester hydrolysis: 10 fold
[3]; no NAD+
  Vmax: 181 ± 6.8 min⁻¹
  EC50: 3.4 µM
  Vo: 24.9 ± 2.0 min⁻¹
[4]; 1.0 mM NAD+, 0.97 mM p-Nitrophenylacetate
  Vmax: 14.7 ± 1.3 min⁻¹
[4]; 1.0 mM NAD+, 0.97 mM p-Nitrophenylacetate, read-out: KAct^(app)
  EC50: 11.2 µM
[4]; 1.0 mM NAD+, 0.97 mM p-Nitrophenylacetate, velocity in absence of activator
  Vo: 1.36 ± 0.28 min⁻¹
[4]; combined Alda-1 and NAD+
  increase of ester hydrolysis: over 100 fold
[4]; [9]
  Vmax: 49.5 ± 4.3 min⁻¹
  Vo: 0.64 ± 0.19 min⁻¹
[4]; no NAD+, 0.97 mM p-Nitrophenylacetate
  Vmax: 2.3 ± 0.2 min⁻¹
[4]; no NAD+, 0.97 mM p-Nitrophenylacetate, read-out: KAct^(app)
  EC50: 16.1 µM
[4]; no NAD+, 0.97 mM p-Nitrophenylacetate, velocity in absence of activator
  Vo: 0.40 ± 0.03 min⁻¹
[4]; with Alda-1, read-out: half-maximal activating concentration of NAD+ for the esterase reaction in presence of Alda-1 (lowered from 7.5 mM)
  EC50: 2800 µM
[5]; covariation NAD+ (0.5-10 mM) and Alda-1 (0 to 30 μM), non-essential activator fit, read-out: Kact
  EC50: 16 ± 3 µM
[5]; covariation NAD+ and Alda-1
  decrease of apparent Km for NAD+: 6.7 fold
  increase of Vmax: 2 fold
[5]; covariation NAD+ and Alda-1, non-essential activator fit
  β-factor (modifier on Vmax): 2.0±0.2
[6]
  increase of enzymatic activity: 2.2 fold
[7]
  increase of enzymatic activity: 11 fold
[8]
  increase of enzymatic activity: 2.1 fold

## O=c1c(-c2ccc(O)cc2)coc2cc(O[C@@H]3O[C@H](CO)[C@@H](O)[C@H](O)[C@H]3O)ccc12 [Daidzin, daidzin, reference compound]
[1]; 10 μM Alda-1
  Hill Slope: 1.0 +/− 0.1
  Vmax^(app) of daidzin inhibition curve: 74.9 ± 12.1 min⁻¹
  Vmin^(app) of daidzin inhibition curve: 2.5 ± 5.2 min⁻¹
[1]; no Alda-1
  Hill Slope: 0.9 +/− 0.3
  Vmax^(app) of daidzin inhibition curve: 61.5 ± 6.1 min⁻¹
  Vmin^(app) of daidzin inhibition curve: 5.1 ± 4.7 min⁻¹
[2]; 50 μM Alda-1
  Hill Slope: 1.1 +/− 0.1
  Vmax^(app) of daidzin inhibition curve: 23.0 ± 1.7 min⁻¹
  Vmin^(app) of daidzin inhibition curve: 0.2 ± 0.2 min⁻¹
[2]; no Alda-1
  Hill Slope: 1.1 +/− 0.1
  Vmax^(app) of daidzin inhibition curve: 11.6 ± 1.3 min⁻¹
  Vmin^(app) of daidzin inhibition curve: 0.2 ± 0.6 min⁻¹
